Laboratory results from patent publication US11952358B2, “Flavan-3-ol analogs and anti-inflammatory activity” (Hong Kong Baptist University, priority 2021, dated 2024).

Legend:
[1] = test system: LPS-stimulated RAW 264.7 cells; experiment: RNA-sequencing analysis with GO and KEGG enrichment; type: cell-based, mouse; conditions: 50 μM; vs LPS-stimulated group; KEGG-classified inflammation-related genes
Experimental: RNA-sequencing analysis RAW 264.7 cells were treated with each flavan-3-ol (25, 50 μM) for 24 h followed by LPS (1 μg/mL) stimulation for another 2 h. Cells were collected and then directly prepared for cDNAs amplification and RNA-Seq library construction. Total RNA was isolated with TRIzol reagent from each group. A complementary DNA library was prepared and sequencing was performed according to the Illumina standard protocol developed by Suzhou GENEWIZ Biological Technology Co., Ltd. (https://www.genewiz.com). […] After filtering, reference genome and gene model annotation files were downloaded from a genome website browser (NCBI/UCSC/Ensembl). Indexes of the reference genome were built using Bowtie v2.0.6 and paired-end clean reads were aligned to the reference genome using TopHat v2.0.9. Bowtie was used for a BWT (Burrows-Wheeler Transformer) algorithm for mapping reads to the genome and Tophat can generate a database of splice junctions based on the gene model annotation file and thus achieve a better mapping result than other non-splice mapping tools. For the quantification of gene expression level, HTSeq V0.6.1 was used to count the read numbers mapped for each gene. The RPKM of each gene was calculated based on the gene read counts mapped to this gene. A differential expression analysis was performed using the DESeq R package (1.10.1). For clustering, the inventors clustered different samples to see the correlation using hierarchical clustering distance method with the function of heatmap, SOM (Self-organization mapping) and k means using silhouette coefficient to adapt the optimal classification with default parameter in R. The complete RNA-seq datasets in this manuscript captioned has been deposited at GEO database (http://www.ncbi.nlm.nih.gov/geo/) under accession ID GSE181052.
Gene ontology (GO) and KEGG enrichment analysis GO enrichment analysis of differentially expressed genes was implemented by the GOseq R Package, in which gene length bias was corrected. GO analysis was performed with the DAVID online tool (https://david.ncifcrf.gov/). Top GO categories were selected according to the P-values. Pathways of differentially expressed genes were analyzed by the KEGG database (http://www.kegg.jp/kegg/). The inventors used KOBAS software to test the statistical enrichment of differential expression genes in KEGG pathways.
RNA-seq analysis of downstream genes regulated by flavan-3-ols. […] RNA-seq analysis was performed to further study the effects of compounds 3m, 3o, 3p, 3ae and 3ag on gene transcriptional pathways related to inflammation. RAW 264.7 cells were used in the RNA-seq analysis, in which cells were pretreated with each compound (50 μM) for 24 h followed by LPS (1 μg/mL) stimulation for another 2 h. […] Next, the inventors focused on genes related to inflammatory reactions and inflammation-related diseases (inflammation-related genes) based on the gene and pathway classification of Kyoto Encyclopedia of Genes and Genomes (KEGG database).
To further analyze the functional distribution of differentially-expressed genes in relation to different biological processes, cellular components and molecular functions, gene ontology (GO) enrichment analysis was performed. The histogram of GO enrichment of differentially-expressed genes was presented.
Furthermore, to determine the biochemical metabolic pathways and signal transduction pathways involved in differentially expressed genes regulated by compound 3ag, KEGG pathway analysis was then performed.

IL-1β = experiment: ELISA of IL-1β secretion from LPS-stimulated RAW 264.7 cells; type: cell-based, mouse; conditions: compound 50 μM 24 h, then LPS 1 μg/mL 2 h (FIG. 8)
Experimental: RAW 264.7 cells were pretreated with each compound (50 μM) for 24 h followed by LPS (1 μg/mL) stimulation for another 2 h. The concentrations of IL-1β in RAW 264.7 cell culture supernatants were measured by ELISA kits and the inhibition rate of compound on the secretion of each pro-inflammatory cytokine was calculated. Data from three independent experiments were expressed as means±SD. *P<0.05, **P<0.01 compared with LPS-stimulated group.
Cell culture The RAW 264.7 cell line was purchased from the Cell Bank of Shanghai Institute of Biochemistry & Cell Biology at the Chinese Academy of Sciences (Shanghai, China) and cultured in DMEM supplemented with 10% (v/v) fetal bovine serum (FBS), 100 U/ml penicillin and 100 […], in a stable environment with 5% CO2 at 37° C. Before used in the following in vitro experiments, RAW 264.7 cells were pretreated with synthesized flavan-3-ol (25, 50 μM) for 24 h followed by LPS (1 μg/mL) stimulation for another 2 h.
Enzyme-Linked Immunosorbent Assay (ELISA) RAW 264.7 cells were treated with these synthesized flavan-3-ols (25, 50 μM) for 24 h followed by LPS (1 μg/mL) stimulation for another 2 h and the culture supernatant was collected. The concentrations of IL-1β, IL-6 and TNF-α in the culture supernatant of RAW 264.7 cells were determined according to the manufacturer's instructions of the Duo-set enzyme linked immune sorbent assay kits, purchased from R&D Systems Co. Ltd. (Minneapolis, MN, USA).
The increased pro-inflammatory cytokines production in RAW 264.7 cells has been reported to play an influential role in the inflammation response. To evaluate the anti-inflammatory effects of these flavan-3-ols in vitro, ELISA kits were employed to investigate their effects on the LPS (lipopolysaccharide)-induced pro-inflammatory cytokines production of RAW 264.7 cells. After treating with the flavan-3-ols (25 and 50 μM) and stimulated by LPS, the levels of three main pro-inflammation cytokines including IL-1β ([…]), IL-6 (interleukin-6), and TNF-α (tumor necrosis factor-α) in culture supernatant from RAW 264.7 cells were measured by ELISA kits, and then the inhibition rates of the flavan-3-ols on the secretion of each pro-inflammatory cytokine were calculated by the formula shown as follows.
[formula] In this formula, “L” refers to “the pro-inflammatory cytokine level in cell culture supernatant of LPS-induced group (L)” and “Lc” refers to “the pro-inflammatory cytokine level in cell culture supernatant of compound-treated group (Lc)”. Using this calculation, the reduced levels of pro-inflammation cytokines in the compound treated group would give higher values, which reflect higher inhibition rates.
FIG. 4a-c show the effect of flavan-3-ols on pro-inflammatory cytokine secretion in vitro. RAW 264.7 cells were pretreated with each compound (25, 50 μM) for 24 h followed by LPS (1 μg/mL) stimulation for another 2 h. The concentrations of IL-1β, IL-6, TNF-α in RAW 264.7 cell culture supernatants were measured by ELISA kits and the inhibition rate of compound on the secretion of each pro-inflammatory cytokine was calculated.

melting point [°C] | SMILES | inflammation-related genes downregulated [1] | inhibition rate of IL-1β secretion compared with enantiomer and racemic form (IL-1β)
69 to 70 | COCOc1ccc2c(c1)C=C[C@H](c1ccccc1)O2 [1ab, (R)-6-(methoxymethoxy)-2-phenyl-2H-chromene] |  | 
81 to 82 | Oc1ccc2c(c1)C=C[C@H](c1ccccc1)O2 [1ac, (R)-2-phenyl-2H-chromen-6-ol] |  | 
92 to 93 | C1=C[C@H](c2ccc(OCc3ccccc3)cc2)Oc2ccccc21 [1d, (R)-2-(4-(benzyloxy)phenyl)-2H-chromene] |  | 
65 to 66 | COCOc1ccc2c(c1)C[C@H](O)[C@@H](c1ccccc1)O2 [3ab, (2R,3S)-6-(methoxymethoxy)-2-phenylchroman-3-ol] |  | 
187 to 188 | Oc1ccc2c(c1)C[C@H](O)[C@@H](c1ccccc1)O2 [3ac, (2R,3S)-2-phenylchromane-3,6-diol] |  | 
130 to 131 | O[C@H]1Cc2cc(Cl)ccc2O[C@@H]1c1ccccc1 [3ae, (2R,3S)-6-chloro-2-phenylchroman-3-ol] | downregulated parts of inflammation-related genes | higher inhibition rates than their enantiomers
129 to 130 | Cc1cc2c(cc1Cl)C[C@H](O)[C@@H](c1ccccc1)O2 [3af, (2R,3S)-6-chloro-7-methyl-2-phenylchroman-3-ol] |  | 
138 to 139 | O[C@H]1Cc2cc(Cl)ccc2O[C@@H]1c1ccc(Cl)cc1 [3ah, (2R,3S)-6-chloro-2-(4-chlorophenyl)chroman-3-ol] |  | 
68 to 69 | Cc1ccc([C@H]2Oc3ccccc3C[C@@H]2O)cc1 [3b, (2R,3S)-2-(p-tolyl)chroman-3-ol] |  | 
89 to 90 | COc1ccc([C@H]2Oc3ccccc3C[C@@H]2O)cc1 [3c, (2R,3S)-2-(4-methoxyphenyl)chroman-3-ol] |  | 
113 to 114 | O[C@H]1Cc2ccccc2O[C@@H]1c1ccc(OCc2ccccc2)cc1 [3d, (2R,3S)-2-(4-(benzyloxy)phenyl)chroman-3-ol] |  | 
97 to 98 | COCOc1ccc([C@H]2Oc3ccccc3C[C@@H]2O)cc1 [3e, (2R,3S)-2-(4-(methoxymethoxy)phenyl)chroman-3-ol] |  | 
99 to 100 | O[C@H]1Cc2ccccc2O[C@@H]1c1ccc(F)cc1 [3f, (2R,3S)-2-(4-fluorophenyl)chroman-3-ol] |  | 
109 to 110 | O[C@H]1Cc2ccccc2O[C@@H]1c1ccc(Cl)cc1 [3g, (2R,3S)-2-(4-chlorophenyl)chroman-3-ol] |  | 
109 to 110 | O[C@H]1Cc2ccccc2O[C@@H]1c1ccc(Br)cc1 [3h, (2R,3S)-2-(4-bromophenyl)chroman-3-ol] |  | 
91 to 92 | Cc1ccccc1[C@H]1Oc2ccccc2C[C@@H]1O [3j, (2R,3S)-2-(o-tolyl)chroman-3-ol] |  | 
88 to 89 | Cc1cccc([C@H]2Oc3ccccc3C[C@@H]2O)c1 [3k, (2R,3S)-2-(m-tolyl)chroman-3-ol] |  | 
135 to 136 | Cc1cc(C)cc([C@H]2Oc3ccccc3C[C@@H]2O)c1 [3l, (2R,3S)-2-(3,5-dimethylphenyl)chroman-3-ol] |  | 
 | CCC[C@H]1Oc2ccccc2C[C@@H]1O [3p, (2R,3S)-2-propylchroman-3-ol] | downregulated parts of inflammation-related genes | 
 | CCC[C@@H]1Oc2ccccc2C[C@H]1O [3p′, (2S,3R)-2-propylchroman-3-ol] |  | higher inhibition rate of IL-1β secretion than its racemic mixture
116 to 117 | Cc1cccc2c1C[C@H](O)[C@@H](c1ccccc1)O2 [3q, (2R,3S)-5-methyl-2-phenylchroman-3-ol] |  | 
109 to 110 | Cc1ccc2c(c1)C[C@H](O)[C@@H](c1ccccc1)O2 [3r, (2R,3S)-6-methyl-2-phenylchroman-3-ol] |  | 
95 to 96 | Cc1ccc2c(c1)O[C@H](c1ccccc1)[C@@H](O)C2 [3s, (2R,3S)-7-methyl-2-phenylchroman-3-ol] |  | 
68 to 69 | Cc1cccc2c1O[C@H](c1ccccc1)[C@@H](O)C2 [3t, (2R,3S)-8-methyl-2-phenylchroman-3-ol] |  | 
149 to 150 | Cc1cc(C)c2c(c1)O[C@H](c1ccccc1)[C@@H](O)C2 [3u, (2R,3S)-5,7-dimethyl-2-phenylchroman-3-ol] |  | 
151 to 152 | Cc1cc2c(cc1C)O[C@H](c1ccccc1)[C@@H](O)C2 [3v, (2R,3S)-6,7-dimethyl-2-phenylchroman-3-ol] |  | 
116 to 117 | COc1cccc2c1C[C@H](O)[C@@H](c1ccccc1)O2 [3w, (2R,3S)-5-methoxy-2-phenylchroman-3-ol] |  | 
118 to 119 | COc1ccc2c(c1)C[C@H](O)[C@@H](c1ccccc1)O2 [3x, (2R,3S)-6-methoxy-2-phenylchroman-3-ol] |  | 
151 to 152 | COc1cccc2c1O[C@H](c1ccccc1)[C@@H](O)C2 [3z, (2R,3S)-8-methoxy-2-phenylchroman-3-ol] |  | 
106 to 107 | Oc1ccc([C@H]2Oc3ccccc3C[C@@H]2O)cc1 [compound 5, (2R,3S)-2-(4-hydroxyphenyl)chroman-3-ol] |  | 
